Like-named read-outs stand apart in the source and are kept apart here.
How the values were obtained:
[1] = system: SARS-CoV-2; conditions: Vero-E6 cells ref 9; cited from earlier work
[2] = system: SARS-CoV-2; assay type: in vivo, Syrian hamster; conditions: for reduction in virus RNA levels in throat swabs vs untreated control: daily day 0–4, day 5
[3] = target: T1, SARS-CoV-2 PLpro (Severe acute respiratory syndrome coronavirus 2, UniProt P0DTD1); assay type: binding
[4] = target: PLpro (Severe acute respiratory syndrome coronavirus 2, UniProt P0DTD1); assay: Differential scanning fluorimetry; conditions: PLpro 2.5 μM; ATA 0.78 μM to 200 μM; 20 °C to 90 °C
[5] = target: T1, SARS-CoV-2 PLpro; assay type: biochemical
[6] = 15, 30, 45 mg/kg oral; observation period of five days
[7] = system: SARS-CoV-2; assay type: cell-based
[8] = PLpro pre-incubated with GRL0617 for 2 h
[9] = binding to PLpro, no pre-incubation

## Nc1nc2nc[nH]c2c(=S)[nH]1 [6-TG, 6-thioguanine]
[1]
  EC50: ~2 µM

## O=C(O)C1=CC(=C(c2ccc(O)c(C(=O)O)c2)c2ccc(O)c(C(=O)O)c2)C=CC1=O [ATA, aurintricarboxylic acid]
[2]; 15, 30, 45 mg/kg oral, day 5
  reduction of virus RNA levels in lung tissues vs untreated control: no significant reduction
[2]; 15, 30, 45 mg/kg oral, day 5, H&E
  lung pathology vs untreated: no noticeable difference
[2]; group A, 15 mg/kg oral
  reduction in virus RNA levels in throat swabs vs untreated control: 0.4 log
[2]; group B, 30 mg/kg oral
  reduction in virus RNA levels in throat swabs vs untreated control: 0.4 log
[2]; group C, 45 mg/kg oral
  reduction in virus RNA levels in throat swabs vs untreated control: 1 log
[3]; [8]
  N (stoichiometry): 1.30
  ΔH (enthalpy change): -2.403 kcal/mol
  ΔS (entropy change): 14.6 cal/mol/deg
[3]; [9]
  N (stoichiometry): 1.31
  ΔH (enthalpy change): -2.469 kcal/mol
  ΔS (entropy change): 14.3 cal/mol/deg
[3]; one-site binding model, no pre-incubation
  enthalpy (ΔH): -2.47 kcal/mol
[4]
  effect on PLpro structure (SYPRO Orange dye fluorescence): stabilizes the protein structure
[5]; best fit of kinetic data among four models (AICc)
  type of inhibition: non-competitive
[5]; compounds up to 300 μM, 200 nM enzyme, 20 μM substrate, 5 mM DTT
  inhibition of PLpro enzymatic activity in library screening: significant inhibition
[6]
  weight loss, gross complications, or mortality: no significant weight loss
[7]; 25 μM ATA
  % reduction: 3.1%
  Viral RNA copy no./ml: 2404
[7]; 75 μM ATA
  % reduction: 84.2%
  Viral RNA copy no./ml: 393
[7]; 100 μM ATA
  % reduction: 91.7%
  Viral RNA copy no./ml: 207
[7]; 200 μM ATA
  % reduction: 92.2%
  Viral RNA copy no./ml: 193
[7]; 300 μM ATA
  % reduction: 97.1%
  Viral RNA copy no./ml: 71
[7]; 400 μM ATA
  % reduction: 99.0%
  Viral RNA copy no./ml: 25

## O=C1C=CC(=C(c2ccc(O)cc2)c2ccc(O)cc2)C=C1 [aurin, reference compound]
[5]
  inhibition of PLpro: didn't inhibit

Reference: PMC9851725 (International Journal of Biological Macromolecules, 2023)
